Target: 72 kDa type IV collagenase (Rattus norvegicus, UniProt P33436)
Assay: Inhibition of gelatinolytic activity of MMP2 in rat lung homogenate after 40 mins by SDS-PAGE preincubated for 30 mins

Sequence of 72 kDa type IV collagenase (P33436 whole entry): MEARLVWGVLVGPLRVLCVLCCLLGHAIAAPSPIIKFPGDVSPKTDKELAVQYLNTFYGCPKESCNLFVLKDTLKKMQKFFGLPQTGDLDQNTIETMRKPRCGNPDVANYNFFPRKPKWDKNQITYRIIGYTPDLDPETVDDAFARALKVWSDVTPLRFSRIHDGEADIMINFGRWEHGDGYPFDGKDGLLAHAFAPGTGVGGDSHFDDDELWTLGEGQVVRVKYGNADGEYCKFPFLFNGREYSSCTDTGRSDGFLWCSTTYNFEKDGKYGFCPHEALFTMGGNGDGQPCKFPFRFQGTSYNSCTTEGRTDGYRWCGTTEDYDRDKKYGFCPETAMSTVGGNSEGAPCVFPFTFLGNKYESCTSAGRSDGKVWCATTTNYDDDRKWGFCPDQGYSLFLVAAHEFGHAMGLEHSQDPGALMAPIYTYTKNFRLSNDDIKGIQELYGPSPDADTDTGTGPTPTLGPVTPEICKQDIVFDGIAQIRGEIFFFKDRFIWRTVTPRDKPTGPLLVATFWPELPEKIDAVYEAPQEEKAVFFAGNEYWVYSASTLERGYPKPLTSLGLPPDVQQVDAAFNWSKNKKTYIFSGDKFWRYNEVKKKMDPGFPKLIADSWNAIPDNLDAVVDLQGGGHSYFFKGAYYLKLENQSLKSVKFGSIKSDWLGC

SMILES | IC50 [µM]
COc1cc(C[C@@H](OC(=O)/C=C/c2ccc(O)c(O)c2)C(=O)O)ccc1O [CLINOPODIC ACID B] | > 100
O=C(/C=C/c1ccc2c(c1)O[C@@H](C(=O)O)[C@@H](c1ccc(O)c(O)c1)O2)O[C@H](Cc1ccc(O)c(O)c1)C(=O)O [CLINOPODIC ACID E] | > 100
O=C(/C=C/c1ccc(O)c(O)c1)O[C@H](Cc1ccc(O)c(O)c1)C(=O)O [ROSMARINIC ACID] | 27.2
COc1cc(C[C@@H](OC(=O)/C=C/c2ccc(O)c3c2[C@H](C(=O)O)[C@@H](c2ccc(O)c(OC)c2)O3)C(=O)O)ccc1O [CLINOPODIC ACID H] | > 100
O=C(/C=C/c1ccc(O)cc1)O[C@H](Cc1ccc(O)c(O)c1)C(=O)O [CLINOPODIC ACID A] | > 100
COc1cc(C[C@@H](OC(=O)/C=C/c2ccc3c(c2)O[C@@H](C(=O)O)[C@@H](c2ccc(O)c(O)c2)O3)C(=O)O)ccc1O [CLINOPODIC ACID F] | > 100
O=C(/C=C/c1ccc(O)c2c1[C@H](C(=O)O)[C@@H](c1ccc(O)c(O)c1)O2)O[C@H](Cc1ccc(O)c(O)c1)C(=O)O [LITHOSPERMIC ACID] | 10.2
O=C(/C=C/c1ccc2c(c1)O[C@H](C(=O)O)[C@H](c1ccc(O)c(O)c1)O2)O[C@H](Cc1ccc(O)c(O)c1)C(=O)O [CLINOPODIC ACID C] | 3.26
COC(=O)[C@@H](Cc1ccc(O)c(O)c1)OC(=O)/C=C/c1ccc(O)c(O)c1 [METHYL ROSMARINATE] | > 100

Reference: ChEMBL document CHEMBL1154248, “Matrix metalloproteinase-2 inhibitors from Clinopodium chinense var. parviflorum” (J Nat Prod, 2009)
